Measurements reported in ChEMBL document CHEMBL5465560, “Selectivity Literature for EUbOPEN Chemogenomic Library” (2024).

How the values were obtained:
[1] = biological target: T1, MAP/microtubule affinity-regulating kinase 4 (Homo sapiens) (UniProt Q96L34); conditions: at 10 µM
T1 sequence (whole entry): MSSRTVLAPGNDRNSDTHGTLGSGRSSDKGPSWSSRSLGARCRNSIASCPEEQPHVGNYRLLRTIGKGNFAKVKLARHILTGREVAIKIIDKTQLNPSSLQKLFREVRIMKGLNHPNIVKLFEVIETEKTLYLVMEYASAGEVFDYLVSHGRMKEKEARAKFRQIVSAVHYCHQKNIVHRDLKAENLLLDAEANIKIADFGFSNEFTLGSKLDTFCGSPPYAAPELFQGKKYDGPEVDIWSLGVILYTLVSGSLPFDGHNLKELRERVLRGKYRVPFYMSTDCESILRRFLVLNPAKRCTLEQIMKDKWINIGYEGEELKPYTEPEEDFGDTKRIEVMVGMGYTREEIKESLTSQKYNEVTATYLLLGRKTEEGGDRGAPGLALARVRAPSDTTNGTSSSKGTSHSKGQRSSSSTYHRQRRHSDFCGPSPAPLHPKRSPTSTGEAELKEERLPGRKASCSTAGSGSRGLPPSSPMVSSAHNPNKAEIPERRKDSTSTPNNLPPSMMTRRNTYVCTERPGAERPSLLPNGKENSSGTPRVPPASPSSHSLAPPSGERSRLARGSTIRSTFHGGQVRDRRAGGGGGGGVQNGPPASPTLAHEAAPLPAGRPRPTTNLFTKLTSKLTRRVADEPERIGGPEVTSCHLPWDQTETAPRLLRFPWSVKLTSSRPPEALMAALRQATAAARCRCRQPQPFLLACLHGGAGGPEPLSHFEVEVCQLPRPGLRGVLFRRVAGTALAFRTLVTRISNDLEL

[2] = biological target: N-lysine methyltransferase SMYD2 (Homo sapiens) (UniProt Q9NRG4); assay: Selectivity interaction (Methyltransferase screen (Scintillation proximity assays)) EUB0000255b SMYD2
[3] = biological target: PAS domain-containing serine/threonine-protein kinase (Homo sapiens) (UniProt Q96RG2); assay: Selectivity interaction (SelectScreen profiling (Invitrogen)) EUB0000607a PASK; conditions: at 2 µM
[4] = biological target: T2, Serine/threonine-protein kinase haspin (Homo sapiens) (UniProt Q8TF76); assay: Selectivity interaction (Kinase panel (DSF assay)) EUB0001558a GSG2
T2 sequence (whole entry): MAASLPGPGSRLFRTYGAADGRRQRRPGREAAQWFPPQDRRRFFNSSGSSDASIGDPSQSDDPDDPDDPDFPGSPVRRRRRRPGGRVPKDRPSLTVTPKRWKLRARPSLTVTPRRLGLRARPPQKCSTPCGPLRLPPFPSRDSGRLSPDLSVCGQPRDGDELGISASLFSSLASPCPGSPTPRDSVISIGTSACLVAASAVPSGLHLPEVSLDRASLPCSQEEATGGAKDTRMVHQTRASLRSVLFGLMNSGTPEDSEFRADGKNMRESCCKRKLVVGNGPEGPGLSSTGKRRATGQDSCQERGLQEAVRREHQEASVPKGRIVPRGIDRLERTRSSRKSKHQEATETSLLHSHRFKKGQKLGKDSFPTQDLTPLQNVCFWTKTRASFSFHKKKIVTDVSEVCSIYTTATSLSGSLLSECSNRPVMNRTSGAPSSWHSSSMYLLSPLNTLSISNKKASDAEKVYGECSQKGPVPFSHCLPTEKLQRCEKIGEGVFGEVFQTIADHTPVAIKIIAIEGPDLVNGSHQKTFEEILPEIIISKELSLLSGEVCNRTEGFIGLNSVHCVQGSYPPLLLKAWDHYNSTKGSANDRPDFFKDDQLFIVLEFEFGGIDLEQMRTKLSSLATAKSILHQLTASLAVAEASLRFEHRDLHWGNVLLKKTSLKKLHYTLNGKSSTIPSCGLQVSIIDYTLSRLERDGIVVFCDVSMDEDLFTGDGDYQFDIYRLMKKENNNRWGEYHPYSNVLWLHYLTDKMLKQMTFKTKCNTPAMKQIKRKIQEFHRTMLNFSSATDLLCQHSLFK

[5] = biological target: T3, Atypical kinase COQ8B, mitochondrial (Homo sapiens) (UniProt Q96D53); assay: Selectivity interaction (KinomeScan (DiscoverX)) EUB0000045b ADCK4
T3 sequence (whole entry): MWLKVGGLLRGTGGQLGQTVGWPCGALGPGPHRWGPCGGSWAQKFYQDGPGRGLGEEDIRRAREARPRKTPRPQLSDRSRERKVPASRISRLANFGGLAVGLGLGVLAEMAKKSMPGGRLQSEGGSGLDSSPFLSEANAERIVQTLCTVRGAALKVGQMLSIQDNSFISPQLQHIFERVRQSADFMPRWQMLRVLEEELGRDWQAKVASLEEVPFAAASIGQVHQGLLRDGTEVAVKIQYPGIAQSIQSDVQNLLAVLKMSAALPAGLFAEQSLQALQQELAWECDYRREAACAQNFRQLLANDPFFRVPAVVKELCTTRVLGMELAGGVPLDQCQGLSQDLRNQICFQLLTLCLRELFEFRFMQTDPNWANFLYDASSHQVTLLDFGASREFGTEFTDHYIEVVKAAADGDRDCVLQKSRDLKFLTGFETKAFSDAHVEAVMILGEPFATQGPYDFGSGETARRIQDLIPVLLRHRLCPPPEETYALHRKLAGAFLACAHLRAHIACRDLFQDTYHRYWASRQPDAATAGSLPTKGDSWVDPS

[6] = biological target: Tyrosine-protein kinase Fgr (Homo sapiens) (UniProt P09769); assay: Selectivity interaction (Kinase panel (Invitrogen)) EUB0000639a FGR; conditions: at 200 nM
[7] = biological target: T4, Mitogen-activated protein kinase 12 (Homo sapiens) (UniProt P53778); assay: Selectivity interaction (KinomeScan (DiscoverX)) EUB0000695a MAPK12; conditions: at 100 nM
T4 sequence (whole entry): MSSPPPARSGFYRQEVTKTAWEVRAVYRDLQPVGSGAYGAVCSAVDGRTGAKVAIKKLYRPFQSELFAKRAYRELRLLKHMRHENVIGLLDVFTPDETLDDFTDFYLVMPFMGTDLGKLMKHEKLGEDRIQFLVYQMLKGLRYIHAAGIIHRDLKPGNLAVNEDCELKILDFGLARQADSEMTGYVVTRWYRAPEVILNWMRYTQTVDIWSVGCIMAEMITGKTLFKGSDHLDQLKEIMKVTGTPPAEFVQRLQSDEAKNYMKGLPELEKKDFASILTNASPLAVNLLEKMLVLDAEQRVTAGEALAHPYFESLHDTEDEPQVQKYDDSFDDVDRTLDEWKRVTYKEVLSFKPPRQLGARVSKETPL

N-lysine methyltransferase SMYD2 (Homo sapiens), sequence (Q9NRG4 whole entry, the tested form may be a part): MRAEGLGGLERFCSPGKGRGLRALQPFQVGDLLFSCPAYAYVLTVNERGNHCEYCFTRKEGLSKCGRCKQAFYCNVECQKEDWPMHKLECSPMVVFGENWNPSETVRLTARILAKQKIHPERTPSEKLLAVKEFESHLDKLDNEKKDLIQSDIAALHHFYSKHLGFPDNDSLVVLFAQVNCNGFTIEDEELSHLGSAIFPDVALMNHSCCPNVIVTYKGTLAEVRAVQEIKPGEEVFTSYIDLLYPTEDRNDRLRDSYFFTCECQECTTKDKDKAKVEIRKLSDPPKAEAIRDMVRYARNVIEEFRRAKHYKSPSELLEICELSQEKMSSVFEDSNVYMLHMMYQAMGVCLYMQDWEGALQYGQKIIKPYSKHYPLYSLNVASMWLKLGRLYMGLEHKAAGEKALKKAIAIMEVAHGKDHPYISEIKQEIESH
PAS domain-containing serine/threonine-protein kinase (Homo sapiens), sequence (Q96RG2 whole entry, the tested form may be a part): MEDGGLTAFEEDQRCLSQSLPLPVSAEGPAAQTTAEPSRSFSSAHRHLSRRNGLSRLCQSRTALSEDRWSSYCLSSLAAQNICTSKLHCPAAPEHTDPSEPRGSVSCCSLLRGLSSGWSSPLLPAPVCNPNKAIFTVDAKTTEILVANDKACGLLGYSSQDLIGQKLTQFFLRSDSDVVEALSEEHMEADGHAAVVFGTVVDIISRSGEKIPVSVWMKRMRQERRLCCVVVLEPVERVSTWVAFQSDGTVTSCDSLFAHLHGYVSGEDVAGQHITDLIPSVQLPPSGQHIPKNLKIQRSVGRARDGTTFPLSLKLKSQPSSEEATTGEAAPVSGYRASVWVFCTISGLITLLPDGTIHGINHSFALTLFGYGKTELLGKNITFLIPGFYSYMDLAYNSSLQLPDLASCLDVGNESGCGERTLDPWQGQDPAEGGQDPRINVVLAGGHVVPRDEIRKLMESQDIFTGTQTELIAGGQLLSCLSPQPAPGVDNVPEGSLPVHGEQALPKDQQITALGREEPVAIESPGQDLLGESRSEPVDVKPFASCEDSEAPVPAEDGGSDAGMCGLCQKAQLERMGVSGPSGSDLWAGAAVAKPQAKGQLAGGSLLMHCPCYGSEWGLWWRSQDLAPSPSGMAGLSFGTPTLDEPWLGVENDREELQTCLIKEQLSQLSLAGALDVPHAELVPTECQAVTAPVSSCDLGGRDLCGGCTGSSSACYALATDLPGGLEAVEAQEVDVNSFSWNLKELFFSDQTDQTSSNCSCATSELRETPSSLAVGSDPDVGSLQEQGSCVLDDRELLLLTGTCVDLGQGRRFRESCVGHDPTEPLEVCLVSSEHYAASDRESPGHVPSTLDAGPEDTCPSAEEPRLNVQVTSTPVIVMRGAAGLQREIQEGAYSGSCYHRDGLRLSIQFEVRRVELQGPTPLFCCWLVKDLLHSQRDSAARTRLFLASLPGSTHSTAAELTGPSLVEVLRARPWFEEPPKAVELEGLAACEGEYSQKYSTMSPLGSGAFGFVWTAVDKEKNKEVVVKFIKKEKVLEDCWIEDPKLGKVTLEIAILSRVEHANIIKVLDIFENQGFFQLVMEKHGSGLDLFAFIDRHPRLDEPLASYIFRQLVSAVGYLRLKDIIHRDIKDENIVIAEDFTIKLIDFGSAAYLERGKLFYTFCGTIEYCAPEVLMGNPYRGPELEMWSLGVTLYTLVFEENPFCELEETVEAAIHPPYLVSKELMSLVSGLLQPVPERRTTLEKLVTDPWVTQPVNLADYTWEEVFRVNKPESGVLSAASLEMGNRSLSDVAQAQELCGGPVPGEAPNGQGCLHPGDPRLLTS
Tyrosine-protein kinase Fgr (Homo sapiens), sequence (P09769 2-529 limits assumed): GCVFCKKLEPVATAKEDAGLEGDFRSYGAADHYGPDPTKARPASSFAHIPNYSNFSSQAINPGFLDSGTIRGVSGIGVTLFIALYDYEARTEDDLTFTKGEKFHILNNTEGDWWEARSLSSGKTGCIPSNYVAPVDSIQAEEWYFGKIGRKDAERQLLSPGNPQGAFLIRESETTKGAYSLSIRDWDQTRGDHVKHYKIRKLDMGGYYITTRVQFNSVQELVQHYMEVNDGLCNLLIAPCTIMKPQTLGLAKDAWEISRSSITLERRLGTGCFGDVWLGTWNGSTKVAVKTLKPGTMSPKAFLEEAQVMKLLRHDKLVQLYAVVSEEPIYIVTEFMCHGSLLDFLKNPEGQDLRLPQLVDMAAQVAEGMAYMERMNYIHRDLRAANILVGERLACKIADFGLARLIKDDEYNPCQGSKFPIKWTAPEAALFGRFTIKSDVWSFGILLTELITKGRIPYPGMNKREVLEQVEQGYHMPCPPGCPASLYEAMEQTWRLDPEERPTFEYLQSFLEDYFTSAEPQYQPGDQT

Q: For `CCN(CC)CCCCNc1ncc2cc(-c3cc(OC)cc(OC)c3)c(NC(=O)NC(C)(C)C)nc2n1`, which % of control [1] is on record?
A: 100%

Q: For `COCCN1CCC(c2cc(CN(C)C(=O)c3cccc(Oc4ccccc4)c3)ccn2)CC1`, which % activity ([2]; at 1 µM) is on record?
A: > 95%

Q: And the % activity ([2]; at 10 µM)?
A: > 90%

Q: With `CNC(=O)Nc1ccc(-c2nc(N3CC4CCC(C3)O4)c3cnn(C4CCC5(CC4)OCCO5)c3n2)cc1` as the compound, how does the % of inhibition [3] read?
A: 3%

Q: Which dTM [4] does the source give for `CC(C)(O)[C@H](F)CN1Cc2cc(NC(=O)c3cnn4cccnc34)c(N3CCOCC3)cc2C1=O` here?
A: 0.4 K

Q: With `C=CC(=O)Nc1cc(-n2c(=O)ccc3cnc4ccc(-c5ccc(NS(C)(=O)=O)cc5)cc4c32)ccc1C` as the compound, how does the % of control ([5]; at 1 µM) read?
A: 100%

Q: What about the % of control ([5]; at 10 µM) of the same compound?
A: 64%

Q: With `CC[C@@H]1[C@H](F)C(=O)N[C@@H]1COc1nccc2cc(C(N)=O)c(OC)cc12` [ZIMLOVISERTIB] as the compound, how does the % of inhibition [6] read?
A: 8.5%

Q: How did the % of control [7] turn out when `Cc1cc(F)c(C(=O)Nc2cccc(-c3nncn3C(C)C)n2)cc1-n1cnc(C2CC2)c1` was run?
A: 100%
